How the values were obtained:
Assay in all cases: relative viability (nuclei count vs DMSO), 5 days (fraction); higher = more cells survive
Embelin = compound: CCCCCCCCCCCC1=C(O)C(=O)C=C(O)C1=O [Embelin]
Summary of the method: (§1)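 Lung cancer cell lines in 1536-well plates were kept overnight at 37 °C, then pinned with five library-drug doses (not always all listed) spaced by √10 on vehicle-anchored plates. After 5 days without medium change, cells were fixed, permeabilised and Hoechst-stained in one step, imaged at 4×, and nuclei were counted with MetaXpress. Viability is treated-well nuclei divided by vehicle-well nuclei, taken as the median over plates. Plates passed only with control CV below 25% and at least one doubling.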

[1] = compound: C[C@@H]1CN(CC(=O)Nc2ccc3c(c2)Cc2cccc(-c4cc(=O)cc(N5CCOCC5)o4)c2S3)C[C@H](C)O1
Summary of the method: as §1

HG-5-88-01 = compound: CC(C)S(=O)(=O)C1=CC=CC=C1NC2=NC(=NC(=C2Cl)N)NC3=C(C=C(C=C3)N4CCC(CC4)C(=O)N)OC [HG-5-88-01]
Summary of the method: as §1

Vatalanib = compound: Clc1ccc(Nc2nnc(Cc3ccncc3)c3ccccc23)cc1 [Vatalanib]
Summary of the method: as §1

AZ23 = compound: CC(C)Oc1cc(Nc2nc(N[C@@H](C)c3ccc(F)cn3)ncc2Cl)n[nH]1 [AZ23]
Summary of the method: as §1

| Cell Line | relative viability (Embelin; 0.08 µM) | relative viability (Embelin; 0.8 µM) | relative viability (Embelin; 2.53 µM) | relative viability (Embelin; 8 µM) | relative viability ([1]; 0.04 µM) | relative viability ([1]; 0.1265 µM) | relative viability ([1]; 0.4 µM) | relative viability ([1]; 4 µM) | relative viability (HG-5-88-01; 0.04 µM) | relative viability (HG-5-88-01; 0.1265 µM) | relative viability (HG-5-88-01; 0.4 µM) | relative viability (HG-5-88-01; 1.265 µM) | relative viability (HG-5-88-01; 4 µM) | relative viability (Vatalanib; 0.04 µM) | relative viability (Vatalanib; 0.1265 µM) | relative viability (Vatalanib; 0.4 µM) | relative viability (Vatalanib; 1.265 µM) | relative viability (Vatalanib; 4 µM) | relative viability (AZ23; 0.01 µM) | relative viability (AZ23; 0.03162 µM) | relative viability (AZ23; 0.3162 µM) |
| --- | --- | --- | --- | --- | --- | --- | --- | --- | --- | --- | --- | --- | --- | --- | --- | --- | --- | --- | --- | --- | --- |
| ChaGo-K-1 | 1.06 | 1.01 | 1.05 | 0.983 | 0.826 | 0.961 | 0.967 | 0.979 | 1.02 | 1.03 | 0.936 | 1.03 | 0.841 | 0.87 | 0.983 | 1.01 | 0.962 | 1.06 | 1.2 | 1.09 | 1.04 |
| NCI-H1975 | 1.03 | 0.959 | 0.94 | 1.04 | 0.932 | 0.901 | 0.935 | 0.738 | 0.951 | 0.972 | 0.835 | 0.844 | 0.454 | 0.972 | 0.919 | 1.01 | 0.787 | 0.841 | 1.13 | 1.09 | 0.971 |
| NCI-H358 | 1.02 | 0.982 | 1.09 | 1.15 | 0.989 | 0.905 | 0.958 | 0.673 | 0.88 | 0.879 | 0.794 | 0.34 | 0.311 | 1.02 | 0.911 | 0.986 | 0.962 | 0.955 | 1.03 | 1.03 | 1.04 |
| NCI-H23 | 0.987 | 1.07 | 1.03 | 0.705 | 1.08 | 0.923 | 0.943 | 0.96 | 1.03 | 0.993 | 0.959 | 0.824 | 0.392 | 0.948 | 0.833 | 1.04 | 0.961 | 0.853 | – | 1.07 | 0.887 |
| NCI-H2085 | 0.985 | 1.05 | 1.07 | 0.992 | 0.957 | 1.02 | 0.977 | 0.834 | 1.05 | 1.07 | 1.02 | 0.972 | 1.01 | 0.997 | 0.953 | 0.975 | 0.92 | 0.931 | 1.11 | 1.05 | 0.961 |
| COR-L23 | 1 | 1.18 | 1.06 | 1.16 | 1.03 | 1.07 | 1.06 | 0.877 | 1.05 | 1.08 | 0.964 | 0.952 | 0.867 | 0.971 | 0.977 | 1.13 | 1.01 | 0.994 | 1.03 | 1.11 | 1.15 |
| RERF-LC-KJ | 0.978 | 1.01 | 1.07 | 1 | 1.01 | 1.01 | 0.962 | 0.872 | 1.05 | 0.992 | 0.975 | 0.865 | 0.724 | 1.02 | 0.961 | 1.04 | 0.857 | 0.857 | 1.08 | 0.987 | 1.03 |
| HCC-827 | 1.03 | 1.11 | 1.09 | 1.09 | 1.05 | 1.04 | 1.08 | 1.07 | 1.06 | 1.05 | 1.06 | 1.03 | 0.615 | 1.02 | 0.949 | 0.924 | 1.04 | 0.996 | 1.06 | 1.13 | 1.08 |
| NCI-H1299 | 1.04 | 1.05 | 0.994 | 1.02 | 1.05 | 0.989 | 1 | 0.898 | 0.987 | 1.02 | 0.992 | 0.99 | 1.02 | 1.05 | 1.01 | 1.02 | 1 | 1.01 | 1.06 | 1.01 | 1.1 |
| NCI-H727 | 1.03 | 0.935 | 0.958 | 0.976 | 0.93 | 0.885 | 0.991 | 0.882 | 1.08 | 0.883 | 0.958 | 0.606 | 0.63 | 0.943 | 0.858 | 0.899 | 0.832 | 0.887 | 0.832 | 0.94 | 0.973 |
| NCI-H1623 | 0.926 | 0.988 | 1.06 | 0.972 | 0.942 | 0.973 | 1.02 | 0.957 | 1.09 | 0.979 | 0.983 | – | 0.856 | 0.963 | 1.14 | 1.04 | 0.879 | 0.933 | 0.984 | 0.964 | 0.955 |
| HCC-15 | 1.01 | 1.09 | 1.01 | 0.964 | 1.09 | 0.898 | 0.97 | 0.903 | 1.07 | 1.02 | 0.901 | 1 | 0.743 | 1.07 | 1.04 | 1.06 | 0.983 | 1.08 | 1.21 | 1.02 | 1.07 |
| NCI-H1437 | 0.961 | 1.11 | 1.04 | 0.709 | 0.977 | 0.995 | 1.06 | 0.885 | 1.04 | 1.04 | 0.995 | 0.917 | 1.01 | 0.984 | 0.987 | 1.01 | 0.938 | 0.969 | 1.02 | 1.09 | 1 |
| NCI-H1355 | 0.996 | 1.16 | 1.03 | 0.775 | 0.984 | 0.964 | 0.959 | 0.852 | 1.01 | 1.06 | 0.932 | 0.943 | 0.698 | 1.03 | 0.99 | 1.07 | 0.938 | 0.969 | 1.14 | 1.03 | 1.03 |
| NCI-H1755 | 0.986 | 1.03 | 1.02 | 0.892 | 1.01 | 0.986 | 1.03 | 1.01 | 1.02 | 1.03 | 0.99 | 1.02 | 1.01 | 1.03 | 0.959 | 0.966 | 0.944 | 0.99 | 1.09 | 1.05 | 1.06 |
| NCI-H2228 | 1 | 0.946 | 1.08 | 1.02 | 0.941 | 0.937 | 0.909 | 0.625 | 0.725 | 0.588 | 0.371 | 0.3 | 0.345 | 0.988 | 0.902 | 1.15 | 1.09 | 0.975 | 1.16 | 1.1 | 0.868 |
